# According to patent publication US20220396597A1 (priority 2019, published 2022):
# Molecular target: α1Q241L mutated GABAARs (UniProt P18507+P47870+P62813, Q268L)
# Test: GABA current in N2a cells transfected with α1Q241L, β2 and γ2 subunits
# Format: cell-based
# Details: 10 μM GABA; AlloP 50 nM, MQ-221 10 μM
# α1Q241L mutated GABAARs, sequence (P62813 28-455 Q268L): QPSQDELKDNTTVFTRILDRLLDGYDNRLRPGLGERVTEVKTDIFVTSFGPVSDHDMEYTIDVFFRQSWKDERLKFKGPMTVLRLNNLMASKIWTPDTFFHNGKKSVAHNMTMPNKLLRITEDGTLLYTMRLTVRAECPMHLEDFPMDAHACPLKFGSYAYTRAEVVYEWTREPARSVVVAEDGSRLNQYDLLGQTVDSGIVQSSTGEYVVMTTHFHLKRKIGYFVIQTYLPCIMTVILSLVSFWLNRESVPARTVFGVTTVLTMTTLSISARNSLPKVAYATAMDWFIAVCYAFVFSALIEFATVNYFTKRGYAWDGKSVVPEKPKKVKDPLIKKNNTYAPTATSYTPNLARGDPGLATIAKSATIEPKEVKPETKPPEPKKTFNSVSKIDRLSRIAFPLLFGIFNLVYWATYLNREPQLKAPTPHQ
# α1Q241L mutated GABAARs, sequence (P47870 25-512 limits assumed): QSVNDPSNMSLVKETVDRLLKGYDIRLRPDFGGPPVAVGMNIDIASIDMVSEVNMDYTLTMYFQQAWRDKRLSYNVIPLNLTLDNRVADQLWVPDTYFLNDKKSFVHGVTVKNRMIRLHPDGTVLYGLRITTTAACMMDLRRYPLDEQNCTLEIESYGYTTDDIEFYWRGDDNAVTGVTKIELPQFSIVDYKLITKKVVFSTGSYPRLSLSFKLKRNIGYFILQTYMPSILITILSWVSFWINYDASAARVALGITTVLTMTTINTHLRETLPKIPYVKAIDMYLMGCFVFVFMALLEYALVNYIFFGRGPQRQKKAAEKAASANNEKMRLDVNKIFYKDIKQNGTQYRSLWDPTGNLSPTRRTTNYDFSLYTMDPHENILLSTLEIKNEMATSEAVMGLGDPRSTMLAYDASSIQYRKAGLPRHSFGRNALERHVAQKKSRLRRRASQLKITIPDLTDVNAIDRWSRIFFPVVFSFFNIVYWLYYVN
# α1Q241L mutated GABAARs, sequence (P18507 40-475): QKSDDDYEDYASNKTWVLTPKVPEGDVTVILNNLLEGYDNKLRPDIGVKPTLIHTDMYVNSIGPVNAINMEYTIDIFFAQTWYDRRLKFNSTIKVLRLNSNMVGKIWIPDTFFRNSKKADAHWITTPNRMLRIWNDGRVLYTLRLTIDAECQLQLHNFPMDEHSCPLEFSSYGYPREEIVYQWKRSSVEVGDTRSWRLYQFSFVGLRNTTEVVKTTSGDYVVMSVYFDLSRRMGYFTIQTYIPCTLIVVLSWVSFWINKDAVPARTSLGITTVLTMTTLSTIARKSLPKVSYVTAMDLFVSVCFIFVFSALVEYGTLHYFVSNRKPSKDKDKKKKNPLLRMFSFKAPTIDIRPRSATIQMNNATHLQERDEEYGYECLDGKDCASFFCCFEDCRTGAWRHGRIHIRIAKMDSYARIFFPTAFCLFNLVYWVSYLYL
structure (smiles),measurement,value
C[C@H](CCCOS(=O)(=O)O)[C@H]1CC[C@H]2[C@@H]3CC[C@H]4C[C@@H](O)CC[C@]4(C)[C@H]3CC[C@]12C [MQ-221],Effect of the α1 Q241L mutation on potentiation of GABA current,failed to eliminate MQ-221 potentiation
